What was measured:
[1] = system: somatostatin gene expression in TRM-6/PDX-1 cells; test: Somatostatin mRNA expression by RT-PCR in monolayer TRM-6/PDX-1 cells; format: cell-based, human; conditions: approximately 24 hours; for somatastatin mRNA expression (effect in words): TRM-6 cells expressing PDX-1, monolayer cultures
Experimental: The cells were incubated with the inhibitor for approximately 24 hours and then expression of somatastatin expression was measured with RT-PCR. As little as 66 nM TSA lead to an increase in somatastatin induction, with a maximal induction at 6.6. μM of TSA.

[2] = system: insulin gene expression in TRM-6/PDX-1/NeuroD1 cells; test: Insulin mRNA expression by RT-PCR in monolayer TRM-6/PDX-1/NeuroD1 cells; format: cell-based, human
Experimental: FIG. 1 illustrates induction of insulin expression resulting from treatment with trichostatin A (TSA). Insulin mRNA was analyzed by RT-PCR. RT-PCR for the housekeeping gene porphobilinogen deaminase was performed to ensure that equal amounts of cDNA were used. The experiment has been repeated three times and the figure shown here is representative.
Monolayer cultures of TRM-6/PDX-1 also expressing the transcription factor NeuroD 1 (BETA2) express low levels of insulin gene expression.

[3] = system: insulin promoter (CAT reporter) in HeLa cells; test: Insulin promoter CAT reporter activity in HeLa cells transformed with PDX-1; format: cell-based; conditions: HeLa cells transformed with PDX-1 and insulin promoter-CAT plasmid (FIG. 2)
Experimental: FIG. 2 is a bar graph illustrating expression of an insulin promoter in HeLa cells transformed with PDX-1. The graph illustrates differences in expression from the insulin promoter in the presence or absence of the histone deacetylase inhibitor TSA. Insulin promoter activity was determined based on expression of chloramphenicol acetyl transferase (CAT) reporter activity.
In addition, expression of an insulin promoter in HeLa cells was tested for the effect of the histone deacetylase inhibitor TSA on insulin expression. HeLa cells were transformed with PDX-1 and a plasmid comprising a portion of the insulin promoter operably linked to the chloramphenicol acetyl transferase (CAT) reporter gene. The effect of TSA and PDX-1 on insulin expression was then tested. As FIG. 2 illustrates, cells contacted with TSA had approximately 14 times the expression of cells not contacted with TSA.

SMILES: CC(/C=C/C(=O)NO)=C\[C@@H](C)C(=O)c1ccc(N(C)C)cc1 [TSA, trichostatin A]
- concentration giving maximal somatastatin induction ([1]; TRM-6/PDX-1 monolayer): 6.6 µM
- lowest TSA concentration leading to an increase in somatastatin induction ([1]; TRM-6/PDX-1 monolayer): 66 nM
- somatastatin mRNA expression (effect in words) [1]: bypassed the need for cell-cell contact to achieve high levels of somatostatin gene expression
- somatastatin mRNA expression (effect in words) ([1]; listed as trichostatin A): induced somatastatin mRNA expression
- insulin expression (effect in words) ([2]; 3.3 μM for 24 hours, TRM-6/PDX-1/NeuroD1 monolayer, RT-PCR (FIG. 1)): greatly increases insulin expression
- insulin gene expression in TRM-6 cells (summary statement) ([2]; TRM-6 cells): induced insulin gene expression
- insulin promoter expression relative to cells not contacted with TSA [3]: approximately 14 times
